Test results published in US10072026B2, “Crystalline form of 3-((1R,3s,5S)-3-((7-((5-methyl-1H-pyrazol-3-yl)amino)-1,6-naphthyridin-5-yl)amino)-8-azabicyclo[3.2.1]octan-8-yl)propanenitrile” (priority 2015, dated 2018).
Like-named read-outs stand apart in the source and are kept apart here.

What was measured:
Tyk2 = Tyk2 (Homo sapiens (Human), UniProt P29597); experiment: LanthaScreen JAK biochemical assay (Tyk2)
[1] = tested on: IL-4 induced STAT6 phosphorylation in THP-1 human monocytic cells; experiment: Cellular JAK potency assay, THP-1
JAK1 = JAK1 (Homo sapiens (Human), UniProt P23458); experiment: LanthaScreen JAK biochemical assay (JAK1)
JAK2 = JAK2 (Homo sapiens (Human), UniProt O60674); experiment: LanthaScreen JAK biochemical assay (JAK2)
[2] = tested on: IL-13 induced STAT6 phosphorylation in BEAS-2B human lung epithelial cells; experiment: AlphaScreen cellular JAK potency assay, BEAS-2B
[3] = Homo sapiens, THP-1, read-out: THP-1 IL4 pIC50 (converted)
[4] = Homo sapiens, BEAS-2B, read-out: BEAS2B pIC50 (converted)
[5] = IL-4 induced STAT6 phosphorylation, THP-1 cells
[6] = IL-13 induced STAT6 phosphorylation, BEAS-2B cells
[7] = read-out: Tyk 2 (pKi) (converted)
[8] = read-out: JAK 1 (pKi) (converted)
[9] = THP-1 cells, IL-4 induced STAT6 phosphorylation

Sequence of JAK1 (P23458 whole entry): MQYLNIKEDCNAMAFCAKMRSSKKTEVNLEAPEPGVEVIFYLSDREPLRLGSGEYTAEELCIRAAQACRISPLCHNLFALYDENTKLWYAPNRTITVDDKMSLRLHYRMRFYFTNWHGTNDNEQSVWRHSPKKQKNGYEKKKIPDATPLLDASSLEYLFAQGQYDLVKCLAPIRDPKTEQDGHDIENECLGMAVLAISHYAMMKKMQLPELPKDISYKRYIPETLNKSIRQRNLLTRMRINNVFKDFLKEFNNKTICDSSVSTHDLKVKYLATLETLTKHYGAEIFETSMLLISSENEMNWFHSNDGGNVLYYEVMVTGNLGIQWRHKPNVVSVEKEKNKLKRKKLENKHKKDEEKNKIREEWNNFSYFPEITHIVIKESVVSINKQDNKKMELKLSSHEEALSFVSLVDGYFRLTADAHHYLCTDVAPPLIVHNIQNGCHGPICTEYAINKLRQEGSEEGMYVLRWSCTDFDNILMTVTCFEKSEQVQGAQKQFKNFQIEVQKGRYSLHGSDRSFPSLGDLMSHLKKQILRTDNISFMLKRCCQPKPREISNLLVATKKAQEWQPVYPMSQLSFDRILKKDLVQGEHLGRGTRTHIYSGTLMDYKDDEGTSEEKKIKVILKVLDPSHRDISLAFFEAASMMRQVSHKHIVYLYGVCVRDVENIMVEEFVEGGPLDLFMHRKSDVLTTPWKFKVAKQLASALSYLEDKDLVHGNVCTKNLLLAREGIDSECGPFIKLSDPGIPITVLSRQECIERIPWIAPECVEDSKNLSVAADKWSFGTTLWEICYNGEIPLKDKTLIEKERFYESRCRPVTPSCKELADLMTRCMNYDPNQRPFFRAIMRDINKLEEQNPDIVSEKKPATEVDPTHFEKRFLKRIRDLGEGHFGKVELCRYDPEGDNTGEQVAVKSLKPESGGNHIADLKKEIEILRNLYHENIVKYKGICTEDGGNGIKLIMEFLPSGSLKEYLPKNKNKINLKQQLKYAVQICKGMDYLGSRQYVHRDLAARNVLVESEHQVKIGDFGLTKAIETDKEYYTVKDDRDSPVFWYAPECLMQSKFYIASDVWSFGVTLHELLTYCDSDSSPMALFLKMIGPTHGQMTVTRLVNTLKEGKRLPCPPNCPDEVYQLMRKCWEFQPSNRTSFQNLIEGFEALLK
Sequence of JAK2 (O60674 whole entry): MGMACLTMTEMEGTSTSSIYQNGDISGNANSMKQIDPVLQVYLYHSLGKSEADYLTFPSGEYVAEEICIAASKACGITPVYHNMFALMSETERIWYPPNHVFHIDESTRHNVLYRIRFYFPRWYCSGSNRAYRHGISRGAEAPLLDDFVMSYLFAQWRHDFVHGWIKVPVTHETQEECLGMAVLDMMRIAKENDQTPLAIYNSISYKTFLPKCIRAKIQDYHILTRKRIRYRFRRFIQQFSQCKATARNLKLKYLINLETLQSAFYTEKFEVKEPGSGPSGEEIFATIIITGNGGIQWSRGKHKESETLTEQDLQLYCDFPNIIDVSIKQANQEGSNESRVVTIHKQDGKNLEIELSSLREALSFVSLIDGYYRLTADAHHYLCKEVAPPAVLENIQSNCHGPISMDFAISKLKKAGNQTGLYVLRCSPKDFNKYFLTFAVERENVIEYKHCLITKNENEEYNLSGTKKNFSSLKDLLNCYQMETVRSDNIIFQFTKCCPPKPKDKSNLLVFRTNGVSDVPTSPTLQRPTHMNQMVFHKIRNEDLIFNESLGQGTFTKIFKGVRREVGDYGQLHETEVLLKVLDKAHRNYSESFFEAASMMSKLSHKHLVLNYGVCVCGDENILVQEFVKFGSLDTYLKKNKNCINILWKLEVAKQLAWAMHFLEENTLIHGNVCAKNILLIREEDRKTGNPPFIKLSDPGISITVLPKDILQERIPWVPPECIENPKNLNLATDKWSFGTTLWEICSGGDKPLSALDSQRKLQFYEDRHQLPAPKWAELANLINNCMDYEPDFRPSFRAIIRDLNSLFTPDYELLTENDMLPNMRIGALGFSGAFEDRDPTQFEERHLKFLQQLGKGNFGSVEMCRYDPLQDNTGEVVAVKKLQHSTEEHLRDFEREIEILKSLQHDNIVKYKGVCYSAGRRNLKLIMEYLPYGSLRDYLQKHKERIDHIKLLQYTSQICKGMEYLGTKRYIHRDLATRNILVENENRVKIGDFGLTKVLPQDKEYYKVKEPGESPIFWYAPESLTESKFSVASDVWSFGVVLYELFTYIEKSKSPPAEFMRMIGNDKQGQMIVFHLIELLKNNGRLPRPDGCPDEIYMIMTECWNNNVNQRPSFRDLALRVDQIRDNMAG
Sequence of Tyk2 (P29597 whole entry): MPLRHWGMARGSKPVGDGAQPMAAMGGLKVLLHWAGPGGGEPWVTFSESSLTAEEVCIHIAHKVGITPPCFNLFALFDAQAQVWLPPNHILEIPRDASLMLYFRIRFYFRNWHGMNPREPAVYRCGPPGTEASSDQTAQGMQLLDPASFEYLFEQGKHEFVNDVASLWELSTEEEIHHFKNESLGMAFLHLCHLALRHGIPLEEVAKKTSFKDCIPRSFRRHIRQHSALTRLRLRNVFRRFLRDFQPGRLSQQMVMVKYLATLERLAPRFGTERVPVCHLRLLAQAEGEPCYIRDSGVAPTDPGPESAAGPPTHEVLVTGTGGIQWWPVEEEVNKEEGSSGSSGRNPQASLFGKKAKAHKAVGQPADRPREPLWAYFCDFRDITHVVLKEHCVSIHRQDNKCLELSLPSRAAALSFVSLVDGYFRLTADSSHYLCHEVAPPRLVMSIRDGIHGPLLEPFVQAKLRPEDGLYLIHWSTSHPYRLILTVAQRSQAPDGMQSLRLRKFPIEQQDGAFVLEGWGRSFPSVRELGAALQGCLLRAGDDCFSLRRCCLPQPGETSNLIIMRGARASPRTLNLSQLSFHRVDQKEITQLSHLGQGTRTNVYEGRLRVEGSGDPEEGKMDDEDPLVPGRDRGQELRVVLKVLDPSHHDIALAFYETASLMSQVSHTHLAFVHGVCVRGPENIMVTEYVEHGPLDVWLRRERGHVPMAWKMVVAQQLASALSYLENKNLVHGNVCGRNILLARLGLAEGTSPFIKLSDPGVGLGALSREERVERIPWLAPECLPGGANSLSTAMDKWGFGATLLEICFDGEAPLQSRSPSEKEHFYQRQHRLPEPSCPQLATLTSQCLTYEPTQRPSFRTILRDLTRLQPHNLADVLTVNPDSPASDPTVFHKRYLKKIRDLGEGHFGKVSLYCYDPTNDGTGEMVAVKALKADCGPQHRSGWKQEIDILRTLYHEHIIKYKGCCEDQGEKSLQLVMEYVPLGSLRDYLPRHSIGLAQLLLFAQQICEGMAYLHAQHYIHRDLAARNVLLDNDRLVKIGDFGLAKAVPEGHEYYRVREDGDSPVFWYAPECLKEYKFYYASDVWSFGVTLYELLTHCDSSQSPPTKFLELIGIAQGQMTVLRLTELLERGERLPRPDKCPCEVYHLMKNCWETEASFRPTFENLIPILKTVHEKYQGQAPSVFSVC

Cc1cc(Nc2cc3ncccc3c(N[C@@H]3C[C@H]4CC[C@@H](C3)N4CC(F)(F)F)n2)n[nH]1 [Example 1-14]
Ki (Tyk2): 0.1 to 1 nM | IC50 [1, 3]: < 31.6 nM | Ki (JAK1): 0.1 to 1 nM | Ki (JAK2): 0.1 to 1 nM | IC50 [2, 4]: < 31.6 nM

CCC(CC#N)N1[C@@H]2CC[C@H]1C[C@H](Nc1nc(Nc3cc(C)[nH]n3)cc3ncccc13)C2 (stereo partly shown) [Example 1-22]
Tyk 2 (pKi) (Tyk2): B (B represents a pKi value between 9 and 10 (Ki between 1 nM and 0.1 nM)) | THP-1 IL4 pIC50 [1, 5]: B (B represents a pEC50 value between 6.7 and 7.5 (EC50 between 200 nM and 32 nM)) | JAK 1 (pKi) (JAK1): B (B represents a pKi value between 9 and 10 (Ki between 1 nM and 0.1 nM)) | JAK 2 (pKi) (JAK2): B (B represents a pKi value between 9 and 10 (Ki between 1 nM and 0.1 nM)) | BEAS2B pIC50 [2, 6]: A (A represents a pEC50 value≥7.5 (EC50≤32 nM))

Cc1cc(Nc2cc3ncccc3c(N[C@@H]3C[C@H]4CC[C@@H](C3)N4CC3(C#N)CC3)n2)n[nH]1 [Example 1-24]
Ki (Tyk2; [7]): 0.1 to 1 nM | IC50 [1, 3]: 31.6 to 200 nM | Ki (JAK1; [8]): 0.1 to 1 nM | IC50 [2, 4]: < 31.6 nM

Cc1cc(Nc2cc3ncccc3c(N[C@@H]3C[C@H]4CC[C@@H](C3)N4C3(CC#N)COC3)n2)n[nH]1 [Example 1-25]
Ki (Tyk2): 0.1 to 1 nM | IC50 [1, 3]: < 31.6 nM | Ki (JAK1; [8]): 0.1 to 1 nM | IC50 [2, 4]: < 31.6 nM

Cc1cc(Nc2cc3ncccc3c(N[C@@H]3C[C@H]4CCC[C@@H](C3)N4Cc3ccnc(C#N)c3)n2)n[nH]1 [Example 1-55]
Tyk 2 (pKi) (Tyk2): C (C represents a pKi value between 7 and 9 (Ki between 100 nM and 1 nM)) | BEAS2B pIC50 [2, 6]: B (B represents a pEC50 value between 6.7 and 7.5 (EC50 between 200 nM and 32 nM))

Cc1cc(Nc2cc3ncccc3c(N[C@@H]3C[C@H]4CCC[C@@H](C3)N4Cc3ccncc3C#N)n2)n[nH]1 [Example 1-56]
Tyk 2 (pKi) (Tyk2): B (B represents a pKi value between 9 and 10 (Ki between 1 nM and 0.1 nM)) | THP-1 IL4 pIC50 [1, 5]: A (A represents a pEC50 value≥7.5 (EC50≤32 nM)) | JAK 1 (pKi) (JAK1): B (B represents a pKi value between 9 and 10 (Ki between 1 nM and 0.1 nM)) | JAK 2 (pKi) (JAK2): B (B represents a pKi value between 9 and 10 (Ki between 1 nM and 0.1 nM)) | BEAS2B pIC50 [2, 6]: A (A represents a pEC50 value≥7.5 (EC50≤32 nM))

Cc1cc(Nc2cc3ncccc3c(N[C@@H]3C[C@H]4CCC[C@@H](C3)N4C(=O)CCCC#N)n2)n[nH]1 [Example 2-27]
Tyk 2 (pKi) (Tyk2): B (B represents a pKi value between 9 and 10 (Ki between 1 nM and 0.1 nM)) | JAK 1 (pKi) (JAK1): B (B represents a pKi value between 9 and 10 (Ki between 1 nM and 0.1 nM)) | JAK 2 (pKi) (JAK2): B (B represents a pKi value between 9 and 10 (Ki between 1 nM and 0.1 nM)) | BEAS2B pIC50 [2, 6]: B (B represents a pEC50 value between 6.7 and 7.5 (EC50 between 200 nM and 32 nM))

Cc1cc(Nc2cc3ncccc3c(N[C@@H]3C[C@H]4CCC[C@@H](C3)N4C(=O)c3ccc(C#N)nc3)n2)n[nH]1 [Example 2-28]
Tyk 2 (pKi) (Tyk2): B (B represents a pKi value between 9 and 10 (Ki between 1 nM and 0.1 nM)) | JAK 1 (pKi) (JAK1): B (B represents a pKi value between 9 and 10 (Ki between 1 nM and 0.1 nM)) | BEAS2B pIC50 [2, 6]: C (C represents a pEC50 value<6.7 (EC50>200 nM))

Cc1cc(Nc2cc3ncccc3c(N[C@@H]3C[C@H]4CCC[C@@H](C3)N4C(=O)C(C)CC#N)n2)n[nH]1 (stereo partly shown) [Example 2-29]
Tyk 2 (pKi) (Tyk2): B (B represents a pKi value between 9 and 10 (Ki between 1 nM and 0.1 nM)) | JAK 1 (pKi) (JAK1): B (B represents a pKi value between 9 and 10 (Ki between 1 nM and 0.1 nM)) | JAK 2 (pKi) (JAK2): B (B represents a pKi value between 9 and 10 (Ki between 1 nM and 0.1 nM)) | BEAS2B pIC50 [2, 6]: B (B represents a pEC50 value between 6.7 and 7.5 (EC50 between 200 nM and 32 nM))

Cc1cc(Nc2cc3ncccc3c(N[C@@H]3C[C@H]4CCC[C@@H](C3)N4S(=O)(=O)CC(C)C)n2)n[nH]1 [Example 4-17]
Tyk 2 (pKi) (Tyk2): B (B represents a pKi value between 9 and 10 (Ki between 1 nM and 0.1 nM)) | THP-1 IL4 pIC50 [1, 5]: A (A represents a pEC50 value≥7.5 (EC50≤32 nM)) | JAK 1 (pKi) (JAK1): B (B represents a pKi value between 9 and 10 (Ki between 1 nM and 0.1 nM)) | JAK 2 (pKi) (JAK2): B (B represents a pKi value between 9 and 10 (Ki between 1 nM and 0.1 nM))

Cc1cc(Nc2cc3nc(CN4CCOCC4)ccc3c(N[C@@H]3C[C@H]4CCC[C@@H](C3)N4CCC#N)n2)n[nH]1 [Example 5-26]
Tyk 2 (pKi) (Tyk2): B (B represents a pKi value between 9 and 10 (Ki between 1 nM and 0.1 nM)) | THP-1 IL4 pIC50 [1, 5]: A (A represents a pEC50 value≥7.5 (EC50≤32 nM)) | JAK 1 (pKi) (JAK1): A (A represents a pKi value≥10 (Ki≤0.1 nM)) | JAK 2 (pKi) (JAK2): A (A represents a pKi value≥10 (Ki≤0.1 nM))

Cc1cc(Nc2cc3nc(CN4CCN(C)CC4)ccc3c(N[C@@H]3C[C@H]4CC[C@@H](C3)N4S(=O)(=O)N3CCC3)n2)n[nH]1 [Example 5-39]
Ki (Tyk2; [7]): 0.1 to 1 nM | IC50 [1, 3]: 31.6 to 200 nM | Ki (JAK1): 0.1 to 1 nM | Ki (JAK2; read-out: JAK 2 (pKi) (converted)): 0.1 to 1 nM

Cc1cc(Nc2cc3nc(CS(C)(=O)=O)ccc3c(N[C@@H]3C[C@H]4CC[C@@H](C3)N4CCF)n2)n[nH]1 [Example 5-41]
Tyk 2 (pKi) (Tyk2): B (B represents a pKi value between 9 and 10 (Ki between 1 nM and 0.1 nM)) | THP-1 IL4 pIC50 [1, 5]: C (C represents a pEC50 value<6.7 (EC50>200 nM)) | JAK 1 (pKi) (JAK1): B (B represents a pKi value between 9 and 10 (Ki between 1 nM and 0.1 nM)) | JAK 2 (pKi) (JAK2): B (B represents a pKi value between 9 and 10 (Ki between 1 nM and 0.1 nM))

Cc1cnc2cc(Nc3cc(C)[nH]n3)nc(N[C@@H]3C[C@H]4CC[C@@H](C3)N4S(=O)(=O)N3CC(C#N)C3)c2c1 [Example 6-4]
Ki (Tyk2; [7]): 0.1 to 1 nM | IC50 [1, 3]: < 31.6 nM | Ki (JAK1; [8]): 0.1 to 1 nM | IC50 [2, 4]: < 31.6 nM

COc1cnc2cc(Nc3cc(C)[nH]n3)nc(N[C@@H]3C[C@H]4CC[C@@H](C3)N4CCC#N)c2c1 [Example 6-11]
Tyk 2 (pKi) (Tyk2): B (B represents a pKi value between 9 and 10 (Ki between 1 nM and 0.1 nM)) | THP-1 IL4 pIC50 [1, 9]: A (A represents a pEC50 value≥7.5 (EC50≤32 nM)) | JAK 1 (pKi) (JAK1): B (B represents a pKi value between 9 and 10 (Ki between 1 nM and 0.1 nM)) | JAK 2 (pKi) (JAK2): B (B represents a pKi value between 9 and 10 (Ki between 1 nM and 0.1 nM))

COc1cnc2cc(Nc3cc(C)[nH]n3)nc(N[C@@H]3C[C@H]4CC[C@@H](C3)N4S(C)(=O)=O)c2c1 [Example 6-18]
Ki (Tyk2; [7]): 0.1 to 1 nM | IC50 [1, 3]: < 31.6 nM | IC50 [2, 4]: < 31.6 nM

COc1cnc2cc(Nc3cc(C)[nH]n3)nc(N[C@@H]3C[C@H]4CC[C@@H](C3)N4S(=O)(=O)N3CC(C#N)C3)c2c1 [Example 6-20]
Ki (Tyk2; [7]): 0.1 to 1 nM | Ki (JAK1; [8]): 0.1 to 1 nM | Ki (JAK2): 0.1 to 1 nM | IC50 [2, 4]: 31.6 to 200 nM

COc1cnc2cc(Nc3cc(C)[nH]n3)nc(N[C@@H]3C[C@H]4CC[C@@H](C3)N4S(=O)(=O)CCCC#N)c2c1 [Example 6-21]
Tyk 2 (pKi) (Tyk2): B (B represents a pKi value between 9 and 10 (Ki between 1 nM and 0.1 nM)) | JAK 1 (pKi) (JAK1): B (B represents a pKi value between 9 and 10 (Ki between 1 nM and 0.1 nM)) | JAK 2 (pKi) (JAK2): B (B represents a pKi value between 9 and 10 (Ki between 1 nM and 0.1 nM)) | BEAS2B pIC50 ([2]; BEAS-2B cells, IL-13 induced STAT6 phosphorylation): B (B represents a pEC50 value between 6.7 and 7.5 (EC50 between 200 nM and 32 nM))

COc1cnc2cc(Nc3cc(C)[nH]n3)nc(N[C@@H]3C[C@H]4CC[C@@H](C3)N4S(=O)(=O)CC3(C#N)CC3)c2c1 [Example 6-23]
Ki (Tyk2; [7]): 0.1 to 1 nM | Ki (JAK1; [8]): 0.1 to 1 nM | IC50 [2, 4]: 31.6 to 200 nM

COc1cnc2cc(Nc3cc(C)[nH]n3)nc(N[C@@H]3C[C@H]4CCC[C@@H](C3)N4C(=O)CN(C)C)c2c1 [Example 6-30]
Tyk 2 (pKi) (Tyk2): B (B represents a pKi value between 9 and 10 (Ki between 1 nM and 0.1 nM)) | THP-1 IL4 pIC50 [1, 9]: C (C represents a pEC50 value<6.7 (EC50>200 nM)) | JAK 1 (pKi) (JAK1): B (B represents a pKi value between 9 and 10 (Ki between 1 nM and 0.1 nM)) | JAK 2 (pKi) (JAK2): B (B represents a pKi value between 9 and 10 (Ki between 1 nM and 0.1 nM))

Cc1cnc2c(F)c(Nc3cc(C)[nH]n3)nc(N[C@@H]3C[C@H]4CC[C@@H](C3)N4S(=O)(=O)c3cccnc3)c2c1 [Example 8-20]
Tyk 2 (pKi) (Tyk2): C (C represents a pKi value between 7 and 9 (Ki between 100 nM and 1 nM)) | THP-1 IL4 pIC50 [1, 9]: C (C represents a pEC50 value<6.7 (EC50>200 nM)) | JAK 1 (pKi) (JAK1): B (B represents a pKi value between 9 and 10 (Ki between 1 nM and 0.1 nM)) | JAK 2 (pKi) (JAK2): C (C represents a pKi value between 7 and 9 (Ki between 100 nM and 1 nM))

Cc1cc(Nc2cc3ncccc3c(N[C@@H]3C[C@H]4CCC[C@@H](C3)N4S(=O)(=O)c3cncc(F)c3)n2)n[nH]1 [Example 14, N^5-((1R,3s,5S)-9-((5-fluoropyridin-3-yl)sulfonyl)-9-azabicyclo[3.3.1]nonan-3-yl)-N^7-(5-methyl-1H-pyrazol-3-yl)-1,6-naphthyridine-5,7-diamine]
Ki (Tyk2; [7]): 0.1 to 1 nM | IC50 [1, 3]: < 31.6 nM | IC50 [2, 4]: < 31.6 nM
